Laboratory results taken from ChEMBL document CHEMBL4622975 (J Med Chem, 2020).
The source made the active and inactive calls. The rule behind the calls is not given here.

Experiments:
[1] = target: T1, Tyrosine-protein phosphatase non-receptor type 11 (Homo sapiens, UniProt Q06124)
T1 sequence (Q06124 whole entry): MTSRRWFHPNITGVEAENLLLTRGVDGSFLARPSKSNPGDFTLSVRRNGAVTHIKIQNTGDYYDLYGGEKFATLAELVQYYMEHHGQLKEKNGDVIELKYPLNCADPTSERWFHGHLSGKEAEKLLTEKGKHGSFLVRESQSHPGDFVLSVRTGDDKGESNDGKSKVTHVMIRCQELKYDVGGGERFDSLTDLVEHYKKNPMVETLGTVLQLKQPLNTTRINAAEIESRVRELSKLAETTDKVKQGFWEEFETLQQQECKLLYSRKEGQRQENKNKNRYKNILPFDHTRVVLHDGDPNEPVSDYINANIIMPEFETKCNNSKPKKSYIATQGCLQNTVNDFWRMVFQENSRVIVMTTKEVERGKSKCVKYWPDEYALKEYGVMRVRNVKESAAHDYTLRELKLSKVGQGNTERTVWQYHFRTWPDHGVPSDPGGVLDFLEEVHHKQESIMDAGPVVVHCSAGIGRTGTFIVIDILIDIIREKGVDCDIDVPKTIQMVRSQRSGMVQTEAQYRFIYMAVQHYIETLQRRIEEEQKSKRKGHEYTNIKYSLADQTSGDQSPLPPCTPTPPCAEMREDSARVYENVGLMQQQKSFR

[2] = target: T2, Tyrosine-protein phosphatase non-receptor type 1 (Homo sapiens, UniProt P18031)
T2 sequence (P18031 whole entry): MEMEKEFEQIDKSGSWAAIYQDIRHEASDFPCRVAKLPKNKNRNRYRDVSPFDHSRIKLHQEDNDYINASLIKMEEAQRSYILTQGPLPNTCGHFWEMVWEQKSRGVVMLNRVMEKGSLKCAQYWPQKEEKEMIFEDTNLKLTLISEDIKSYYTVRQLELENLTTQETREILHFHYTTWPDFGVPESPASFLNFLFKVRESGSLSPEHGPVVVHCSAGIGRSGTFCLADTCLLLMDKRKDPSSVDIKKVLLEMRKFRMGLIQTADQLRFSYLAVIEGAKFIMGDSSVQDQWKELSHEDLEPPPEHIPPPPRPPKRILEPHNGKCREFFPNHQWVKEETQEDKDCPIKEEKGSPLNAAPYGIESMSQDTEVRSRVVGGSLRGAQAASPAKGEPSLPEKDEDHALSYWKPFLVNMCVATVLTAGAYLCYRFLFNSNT

[3] = target: T3, Phosphotyrosine protein phosphatase (Mycobacterium tuberculosis, UniProt A0A045ISB3)
T3 sequence (A0A045ISB3 whole entry): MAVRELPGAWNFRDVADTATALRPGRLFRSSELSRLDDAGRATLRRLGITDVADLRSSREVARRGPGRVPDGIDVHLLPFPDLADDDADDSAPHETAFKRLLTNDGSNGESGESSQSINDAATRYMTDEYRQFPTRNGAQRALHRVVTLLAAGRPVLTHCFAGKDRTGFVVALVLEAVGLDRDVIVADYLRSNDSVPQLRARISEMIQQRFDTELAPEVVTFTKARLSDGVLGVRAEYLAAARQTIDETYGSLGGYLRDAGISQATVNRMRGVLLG
Description: Inhibition of Mycobacterium tuberculosis PTPB expressed in Escherichia coli BL21 (DE3) using p-nitrophenyl phosphate as substrate measured after 30 mins by UV-vis spectrophotometric method

[4] = target: Receptor-type tyrosine-protein phosphatase epsilon (Homo sapiens, UniProt P23469)
Sequence of Receptor-type tyrosine-protein phosphatase epsilon (P23469 whole entry): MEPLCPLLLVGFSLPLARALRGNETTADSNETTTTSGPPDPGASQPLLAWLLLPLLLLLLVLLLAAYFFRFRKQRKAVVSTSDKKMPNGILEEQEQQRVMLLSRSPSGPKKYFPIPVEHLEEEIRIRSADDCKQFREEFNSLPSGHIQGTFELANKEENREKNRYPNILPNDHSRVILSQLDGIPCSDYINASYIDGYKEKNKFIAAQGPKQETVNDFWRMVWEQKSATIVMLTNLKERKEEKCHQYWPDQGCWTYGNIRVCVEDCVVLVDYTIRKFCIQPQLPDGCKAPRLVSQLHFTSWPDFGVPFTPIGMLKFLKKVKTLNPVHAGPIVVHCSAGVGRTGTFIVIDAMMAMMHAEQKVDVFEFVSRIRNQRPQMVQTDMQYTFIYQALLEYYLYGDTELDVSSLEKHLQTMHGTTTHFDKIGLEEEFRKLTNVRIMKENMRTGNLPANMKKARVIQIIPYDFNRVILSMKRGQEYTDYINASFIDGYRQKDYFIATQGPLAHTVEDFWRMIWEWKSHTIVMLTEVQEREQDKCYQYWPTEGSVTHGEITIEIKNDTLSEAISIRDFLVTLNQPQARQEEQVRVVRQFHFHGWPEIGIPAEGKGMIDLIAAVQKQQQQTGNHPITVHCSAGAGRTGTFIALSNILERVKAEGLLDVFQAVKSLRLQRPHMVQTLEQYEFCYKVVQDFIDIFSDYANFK

[5] = Stability in CD1 mouse pooled liver microsomes measured after 2 hrs in absence of NADPH by LC-MS/MS analysis; format: ADME, Microsome
[6] = Drug uptake in mouse RAW264.7 cells at 20 uM measured after 2 hrs by LC-MS analysis; format: ADME, cell-based; details: raw264.7, 2 h
[7] = target: Tyrosine-protein phosphatase non-receptor type 6 (Homo sapiens, UniProt P29350)
Sequence of Tyrosine-protein phosphatase non-receptor type 6 (P29350 whole entry): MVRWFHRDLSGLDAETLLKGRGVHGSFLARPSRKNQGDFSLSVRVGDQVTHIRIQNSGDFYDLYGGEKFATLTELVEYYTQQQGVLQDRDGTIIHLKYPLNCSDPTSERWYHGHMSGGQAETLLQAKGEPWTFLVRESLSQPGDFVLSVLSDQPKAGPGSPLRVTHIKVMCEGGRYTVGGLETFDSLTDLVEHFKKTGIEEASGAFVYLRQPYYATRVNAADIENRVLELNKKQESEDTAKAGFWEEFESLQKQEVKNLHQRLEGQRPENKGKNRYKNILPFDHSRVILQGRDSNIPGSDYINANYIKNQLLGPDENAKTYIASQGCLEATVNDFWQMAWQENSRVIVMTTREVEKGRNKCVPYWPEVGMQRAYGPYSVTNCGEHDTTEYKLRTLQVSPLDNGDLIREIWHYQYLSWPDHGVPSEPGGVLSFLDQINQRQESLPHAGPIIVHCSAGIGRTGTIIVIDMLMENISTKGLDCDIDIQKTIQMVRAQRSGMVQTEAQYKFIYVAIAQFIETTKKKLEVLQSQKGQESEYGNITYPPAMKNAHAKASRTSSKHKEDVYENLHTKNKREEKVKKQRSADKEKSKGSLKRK

[8] = target: T4, Phosphotyrosine protein phosphatase (Mycobacterium tuberculosis) (UniProt A0A045ISB3)
T4 sequence (whole entry): T3 sequence (A0A045ISB3 whole entry)
Description: Time-dependent inhibition of Mycobacterium tuberculosis PTPB expressed in Escherichia coli BL21 (DE3) using p-nitrophenyl phosphate as substrate in presence of Triton-X-100 by UV-vis spectrophotometric method

[9] = target: T4, Phosphotyrosine protein phosphatase (Mycobacterium tuberculosis); remark: listed apart in the source
Description: Time-dependent inhibition of Mycobacterium tuberculosis PTPB expressed in Escherichia coli BL21 (DE3) using p-nitrophenyl phosphate as substrate in absence of Triton-X-100 by UV-vis spectrophotometric method

MEF = experiment: Cytotoxicity against MEF at 25 uM measured after 72 hrs by MTT assay; format: cell-based; details: mouse

SMILES | IC50 [1] [µM] | IC50 [2] [µM] | IC50 [3] [µM] | IC50 [7] [µM] | also measured
O=C(O)C(=O)Nc1ccc(CCc2ccccc2)cc1 | > 30 | > 30 | 1.27 | – | –
O=C(O)C(=O)Nc1ccc(C#Cc2ccc(C(F)(F)F)cc2)cc1 | > 50 | > 50 | – | > 50 | IC50 [4]: > 30 µM; Stability [5]: Stable; Drug uptake [6]: Active
COC(=O)c1cc(C#Cc2ccc(NC(=O)C(=O)O)cc2)c(N(C)C)cc1O | > 50 | > 50 | 0.03 | > 50 | –
CN(C)c1cc(O)c(C(=O)O)cc1C#Cc1ccc(NC(=O)C(=O)O)cc1 | – | > 100 | 0.09 | – | –
O=C(O)C(=O)Nc1cccc(C#Cc2ccccc2)c1 | – | > 100 | – | – | –
O=C(O)C(=O)Nc1ccc(C#Cc2ccc(C(F)(F)F)cc2F)cc1 | > 30 | > 30 | – | > 30 | Stability [5]: Stable; Drug uptake [6]: Active
COC(=O)c1ccc(C#Cc2ccc(NC(=O)C(=O)O)cc2)cc1O | > 50 | > 50 | – | > 50 | –
CC(C)(C)c1ccc(C#Cc2ccc(NC(=O)C(=O)O)cc2)cc1 | > 50 | > 50 | 0.026 | > 50 | –
O=C(O)C(=O)Nc1ccc(C#Cc2ccc(C(F)(F)F)cc2Br)cc1 | – | – | – | – | Stability [5]: Stable; Drug uptake [6]: Active
O=C(O)C(=O)Nc1ccc(C#Cc2ccc(C(F)(F)F)cc2C(F)(F)F)cc1 | > 30 | > 30 | – | > 30 | –
O=C(O)C(=O)Nc1ccc(C#Cc2cccc(C(F)(F)F)c2)cc1 | > 50 | – | – | > 50 | –
O=C(O)C(=O)Nc1ccc(/C=C\c2ccc(C(F)(F)F)cc2)cc1 | > 30 | > 30 | 0.684 | – | –
O=C(O)C(=O)Nc1ccc(/C=C\c2ccccc2)cc1 | > 30 | > 30 | 0.77 | – | –
O=C(O)C(=O)Nc1ccc(CCc2ccc(C(F)(F)F)cc2)cc1 | > 30 | > 30 | 0.197 | – | –
COC(=O)c1cc(C#Cc2ccc(NC(=O)C(=O)O)cc2)ccc1O | – | > 50 | 0.025 | > 50 | –
O=C(O)C(=O)Nc1ccc(C#Cc2ccc3ccccc3c2)cc1 | > 50 | > 50 | – | > 50 | –

SMILES | IC50 [1] [µM] | IC50 [2] [µM] | IC50 [3] [µM] | IC50 [7] [µM] | also measured
C#Cc1ccc(NC(=O)C(=O)O)cc1 | > 100 | > 100 | – | – | –
O=C(O)C(=O)Nc1ccc(C#Cc2cc(C(F)(F)F)cc(C(F)(F)F)c2)cc1 | > 50 | > 50 | 0.06 | > 50 | TDI [8]: Active; TDI [9]: Active
O=C(O)C(=O)Nc1ccc(C#Cc2ccc(OC(F)(F)F)cc2)cc1 | > 50 | > 50 | – | > 50 | –
N#Cc1ccc(C#Cc2ccc(NC(=O)C(=O)O)cc2)cc1 | > 50 | > 50 | – | > 50 | –
O=C(O)C(=O)Nc1cnc2ccccc2c1 | – | – | > 10 | – | –
O=C(O)C(=O)Nc1ccc(C#Cc2ccccc2)cc1 | > 100 | > 100 | 0.257 | > 100 | –
O=C(O)C(=O)Nc1ccc(C#Cc2ccc(C(F)(F)F)cc2Cl)cc1 | > 30 | > 30 | – | > 30 | Activity (MEF): Non-Toxic; Stability [5]: Stable; Drug uptake [6]: Active
NS(=O)(=O)c1ccc(C#Cc2ccc(NC(=O)C(=O)O)cc2)cc1 | > 50 | > 50 | – | – | –
CC(C)(C)OC(=O)Nc1ccc(C#Cc2ccc(NC(=O)C(=O)O)cc2)cc1 | > 50 | > 50 | – | > 50 | Activity (MEF): Non-Toxic
COC(=O)c1cc(C#Cc2cccc(NC(=O)C(=O)O)c2)c(N(C)C)cc1O | > 50 | > 50 | – | > 50 | –
CN(C)c1cc(O)c(C(=O)O)cc1C#Cc1cccc(NC(=O)C(=O)O)c1 | – | – | 0.16 | – | –
O=C(O)C(=O)Nc1ccc(C#Cc2ccc(O)cc2)cc1 | > 50 | > 50 | – | > 50 | –
O=C(O)C(=O)Nc1ccccc1 | > 100 | > 100 | – | – | –
CC(C)(C)OC(=O)NCC#Cc1ccc(NC(=O)C(=O)O)cc1 | – | > 100 | – | – | –
O=C(O)C(=O)Nc1ccc(C#Cc2ccc(O)c(Br)c2)cc1 | – | > 50 | – | > 50 | –
